Some results are limits rather than exact numbers.

Experiment [1] concerns 231MFP breast cancer cells. In words: 231MFP serum-free cell survival (Hoechst staining). The class given is cell-based. The settings on record: 48 h.
Experiment [2] deals with T1, C377 of PPP2R1A (Homo sapiens, UniProt P30153).
T1 construct: pre-incubating withaferin A (10 μM) for 30 min in 231MFP breast cancer cell proteomes; endogenous in cells; host or cells: 231MFP breast cancer cells (MDA-MB-231 derived)
In words: isoTOP-ABPP after in situ treatment of 231MFP cells. The experiment is classed as binding. The settings on record: 4 h in 231MFP cells in situ, IAyne labeling ex situ. How it is done: IsoTOP-ABPP studies were performed using the methods described in “Nature 534(7608), 570-574 (2016)” by Backus K. M., et al. and “Nature 468(7325), 790-795 (2010)” by Weerapana E., et al. […] Then, IAyne (iodoacetamide-alkyne) labeling was performed for 1 hour at room temperature. CuAAC was used by sequential addition of tris(2-carboxyethyl)phosphine (1 mM), tris[(1-benzyl-1H-1,2,3-triazol-4-yl)methyl]amine (34 μM), copper (II) sulfate (1 mM), and biotin-linker-azide where the linker was functionalized with a TEV protease recognition sequence along with an isotopically light or heavy valine for treatment of control or treated proteome, respectively. After click reactions, proteomes were precipitated by centrifugation at 6500×g, washed in ice-cold methanol, combined in a 1:1 control/treated ratio, washed again, then denatured and re-solubilized by heating in 1.2% SDS/PBS to 80° C. for 5 minutes. Insoluble components were precipitated by centrifugation at 6500×g and soluble proteome was diluted in 0.2% SDS/PBS (5 ml). Labeled proteins were bound to avidin-agarose beads (170 μl re-suspended beads/sample) while rotating overnight at 4° C. Bead-linked proteins were enriched by washing three times each in PBS and water, then re-suspended in urea/PBS (6 M), reduced in TCEP (1 mM), alkylated with iodoacetamide (18 mM), then washed and re-suspended in urea/PBS (2 M), and finally trypsinized overnight with 0.5 μg/μl sequencing grade trypsin. Tryptic peptides were eluted off. Beads were washed in PBS (3 times) and water (3 times), washed in TEV buffer solution (water, TEV buffer, 100 μM dithiothreitol), and re-suspended in buffer with Ac-TEV protease and then incubated overnight. Peptides were diluted in water, acidified with formic acid (1.2 M), and prepared for analysis.
Peptides from all proteomic experiments were pressure-loaded onto an Agilent 600 series RP-HPLC system equipped with a capillary tubing (250 mm) packed with Aqua C18 reverse-phase resin (4 cm). The system was previously equilibrated with a gradient (0% B to 100% B over 10 minutes, 100% B for 5 minutes, then 0% B for 5 minutes; buffer A: 95:5 water:acetonitrile, 0.1% formic acid; buffer B: 80:20 acetonitrile:water, 0.1% formic acid). The samples were then attached using a MicroTee PEEK 360 μm fitting to a laser pulled column (13 cm) packed with Aqua C18 reverse-phase resin (10 cm) and strong-cation exchange resin (3 cm) for isoTOP-ABPP studies. Samples were analyzed using an Q Exactive Plus mass spectrometer using a 5-step Multidimensional Protein Identification Technology (MudPIT) program. The system was run using a gradient (5% B to 55% B; buffer A: 95:5 water:acetonitrile, 0.1% formic acid; buffer B: 80:20 acetonitrile:water, 0.1% formic acid), along with a salt bump feeding aqueous ammonium acetate (500 mM) at an increment of 0%, 25%, 50%, 80%, to 100%. Data was collected in data-dependent acquisition mode with dynamic exclusion enabled (60 sec). One full MS scan (400-1800 m/z) (MS1 scan) was conducted, followed by MS2 scan (ITMS) (15 times) of the most abundant ions. Heated capillary temperature was set to 200° C. and the nanospray voltage was set to 2.75 kV.
Data was extracted in the form of MS1 and MS2 files using Raw Extractor 1.9.9.2 and searched against the Uniprot […] database using ProLuCID search methodology in IP2 v.3, described in “J Proteomics 129:16-24 (2015)” by Xu T, et al. Cysteine residues were searched with a static modification for carboxyaminomethylation (+m/z 57.02146), up to two differential modifications for methionine oxidation, and either the light or heavy TEV tags (+m/z 464.28596 or +m/z 470.29977, respectively). Peptides were required to have at least one tryptic end and to contain the TEV modification. ProLUCID data was filtered through DTASelect to achieve a peptide false-positive rate below 1%. […]

The test system of experiment [3] is siPPP2R1A 231MFP cells. The experiment in a line: Proliferation of siPPP2R1A knockdown 231MFP cells. The class given is cell-based. The settings on record: 48 h after 48 h siRNA transfection. An excerpt:
PPP2R1A was transiently knocked down with siRNA using previously described methods (Benjamin et al., 2014). siRNA for a scrambled RNA oligonucleotide control and pooled RNA oligonucleotides targeting PPP2R1A were purchased from Dharmacon.

The test system of experiment [4] is cysteines profiled in 231MFP cells. The experiment in a line: isoTOP-ABPP proteome-wide selectivity. The experiment is classed as binding. The settings on record: 100 μM, out of >1000 cysteines profiled. How it is done:
IsoTOP-ABPP studies were performed using the methods described in “Nature 534(7608), 570-574 (2016)” by Backus K. M., et al. and “Nature 468(7325), 790-795 (2010)” by Weerapana E., et al. Proteome samples diluted in PBS were treated with Withaferin A or vehicle for 30 minutes at 37° C. Then, IAyne (iodoacetamide-alkyne) labeling was performed for 1 hour at room temperature. CuAAC was used by sequential addition of tris(2-carboxyethyl)phosphine (1 mM), tris[(1-benzyl-1H-1,2,3-triazol-4-yl)methyl]amine (34 μM), copper (II) sulfate (1 mM), and biotin-linker-azide where the linker was functionalized with a TEV protease recognition sequence along with an isotopically light or heavy valine for treatment of control or treated proteome, respectively. After click reactions, proteomes were precipitated by centrifugation at 6500×g, washed in ice-cold methanol, combined in a 1:1 control/treated ratio, washed again, then denatured and re-solubilized by heating in 1.2% SDS/PBS to 80° C. for 5 minutes. […]
Peptides from all proteomic experiments were pressure-loaded onto an Agilent 600 series RP-HPLC system equipped with a capillary tubing (250 mm) packed with Aqua C18 reverse-phase resin (4 cm). […] Samples were analyzed using an Q Exactive Plus mass spectrometer using a 5-step Multidimensional Protein Identification Technology (MudPIT) program. […]

T1 sequence (P30153 whole entry): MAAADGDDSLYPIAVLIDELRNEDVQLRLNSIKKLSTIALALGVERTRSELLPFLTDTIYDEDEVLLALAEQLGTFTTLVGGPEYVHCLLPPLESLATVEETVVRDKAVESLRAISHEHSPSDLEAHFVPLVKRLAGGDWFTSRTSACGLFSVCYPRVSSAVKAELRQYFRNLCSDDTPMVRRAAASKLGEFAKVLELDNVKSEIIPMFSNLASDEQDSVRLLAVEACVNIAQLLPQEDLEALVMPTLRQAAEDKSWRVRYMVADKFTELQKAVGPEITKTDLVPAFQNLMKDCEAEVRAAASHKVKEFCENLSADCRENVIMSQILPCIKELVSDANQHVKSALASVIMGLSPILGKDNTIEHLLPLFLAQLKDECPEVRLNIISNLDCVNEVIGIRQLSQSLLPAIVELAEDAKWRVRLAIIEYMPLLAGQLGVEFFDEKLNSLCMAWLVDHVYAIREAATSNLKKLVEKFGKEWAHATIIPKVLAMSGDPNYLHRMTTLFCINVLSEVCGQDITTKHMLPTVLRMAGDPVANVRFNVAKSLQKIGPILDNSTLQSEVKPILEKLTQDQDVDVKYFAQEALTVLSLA

Consider `CC1=C(CO)C(=O)O[C@@H]([C@@H](C)[C@H]2CC[C@H]3[C@@H]4C[C@H]5O[C@]56[C@@H](O)C=CC(=O)[C@]6(C)[C@H]4CC[C@]23C)C1` [withaferin A, reference compound], for which the serum-free cell survival entry in experiment [1] (10 μM) is listed as “impairs”. The “isotopically light to heavy ratio, C377 of PPP2R1A” value (shortened to “isotopically light to heavy ratio”) in experiment [2] (10 μM) is reported as 4.0. The “anti-proliferative effect in siPPP2R1A versus siControl cells” value in experiment [3] (10 μM) is on record as “significantly attenuated the anti-proliferative effects”.
Regarding `O=C(CCl)Nc1ccc2c(c1)OCCO2` [DKM 2-90, 2-Chloro-N-(2,3-dihydrobenzo[β][1,4]dioxin-6-yl)acetamide], the “isotopically light to heavy ratio” value in experiment [2] (100 μM) amounted to 5.9. For the same compound, in experiment [3] (100 μM), the “anti-proliferative effect in siPPP2R1A versus siControl cells” value is on record as “attenuation”. Besides, in experiment [4], the “total sites showing >5 light to heavy ratio” value was 5.
As for `O=C(CCl)N(Cc1ccccc1)c1ccc2c(c1)OCCO2` [JNS 1-40, N-benzyl-2-chloro-N-(2,3-dihydrobenzo[b][1,4]dioxin-6-yl)acetamide], the serum-free cell survival entry in experiment [1] (100 μM) is on record as “impaired”. The “isotopically light to heavy ratio” value in experiment [2] (100 μM) is recorded as more than 5. For the same compound, the “anti-proliferative effect in siPPP2R1A versus siControl cells” value in experiment [3] (100 μM) is given as “attenuated”. In addition, the “total sites showing >5 light to heavy ratio” value in experiment [4] was “only target”.

Source of the values: patent US20200054651A1, “COMPOSITIONS AND METHODS FOR MODULATING PPP2R1A” (The Regents of the University of California, priority 2017, published 2020).
